By half-life is commonly meant the time needed for the level to fall by half in the phase considered. A word on the IC50: it is the concentration needed to halve the response being measured.

Here are results for 2 molecules from article PMC8647499, “Preclinical evaluation of strasseriolides A–D, potent antiplasmodial macrolides isolated from Strasseria geniculata CF-247,251” (Malaria Journal, 2021).

Molecules are shown by their SMILES.

Series [1] is described as follows: Metabolic stability assay in human liver microsomes. The following applies: for half-life: pH 7.4, 1 mg/mL protein; for Clearance Category: ranked by CLint. The class given is in vitro ADME. The method, then: Pretreatment of the 96-well ABgen-0765 reaction plates was the same as previously described above. Two microlitres (2 µL) of compounds (previously dissolved in DMSO) were pre-incubated with 98 µL of cofactor/buffer solution (0.1 M phosphate buffer of pH 7.4, 100 mM K3PO4, 3.3 mM MgCl2, 3.3 mM G6P, 1.3 mM NADPH, and 0.4 u/mL G6PDH) at 37 °C for 10 min. The reactions were then initiated by the addition of 100 µL of HLM solution (at final protein concentration of 1 mg/mL), after which they were stopped at pre-determined incubation times of 0, 10, 15, 30, 45 and 60 min by adding 90 µL acetonitrile containing internal LC–MS–MS standards and shaking at 180 Hz. The samples were centrifuged to sediment the protein precipitates and the supernatants were analysed by LC–MS–MS as previously described above. The integration of each analyte (the […]) and internal standard peak area was performed by the Analyst® software version 1.5.2 and used to calculate the percentage of remaining compound at each incubation time. The natural logarithm of the percentage of the remaining parent compound was plotted against the incubation time and used to calculate the half-life by the following equation:
Half-life (T ½ min) = 0.693/k, where k is the slope of a plot of the natural log of the percentage parent compound remaining vs. time.
The intrinsic clearance (CLint) was determined by the equation: CLint
=Ln2/t1/2min∗volumeincubationmL/microsomalproteinmg∗45MPPGL1500ghumanliver/70kghumanbodyweightj
Units for CLint were expressed as mL/min/mg microsomal protein and MPPGL = mg microsomal protein per gram liver.
On the technique in general: Liver microsomes are vesicles of endoplasmic reticulum, rich in cytochrome P450 enzymes.

The nature of series [2]: Solubility in the formulation vehicle. The class given is physicochemical. The following applies: at 25 mg/Kg dosage, about 5.53 mM in 200 µL vehicle; preliminary unpublished data.
Series [3] concerns Plasmodium falciparum strain 3D7 whole parasites. Set-up: method as in PMID 32808790. The following applies: in vitro, read-out: IC50 against Plasmodium falciparum strain 3D7; cited from earlier work.

Take `C/C1=C\[C@H](C)[C@@H](O)C[C@@H](O)/C(C)=C/[C@H](C)C[C@@H](C)CC[C@@H]([C@@H](C)C(=O)O)OC(=O)[C@@H](C)C1` [Strasseriolide D, strasseriolide D]: in series [1], the half-life is > 60 min and the “Clearance Category” value is reported as “Low”. For the same molecule, the “soluble in the formulation vehicle” value in series [2] stood at 35%. Besides, the IC50 in series [3] is 128 nM.
As for `C/C1=C\[C@H](C)C(=O)C[C@@H](O)/C(C)=C/[C@H](C)C[C@@H](C)CC[C@@H]([C@@H](C)C(=O)O)OC(=O)[C@@H](C)C1` [Strasseriolide C, strasseriolide C], in series [1], the half-life worked out at 15.9 ± 1.15 min and the “Clearance Category” value is listed as “Medium”. Further, the IC50 in series [3] is 123 nM.
